In US12433889B2 (priority 2021, dated 2025):
In brackets after ≈: the same amount, converted by molar mass.

Tests used:
M. abscessus CIP104536 = test: MIC by microbroth dilution, with and without CF sputum; format: cell-based; conditions: Mycobacteroides abscessus
M. abscessus B15029863 = test: as above; format: cell-based; conditions: Mycobacteroides abscessus
M. abscessus B12052284 = test: as above; format: cell-based; conditions: Mycobacteroides abscessus
[1] = BCS class II; cited from earlier work
M. Chimaera CIP 107892 = test: MIC by microbroth dilution, with and without CF sputum; format: cell-based; conditions: Mycobacterium intracellulare
M. abscessus B18104072 = test: as above; format: cell-based; conditions: Mycobacteroides abscessus
[2] = humans, microcrystalline suspension in an oil-wax base; cited from earlier work
M. avium ATCC 700898 = test: MIC by microbroth dilution, with and without CF sputum; format: cell-based; conditions: Mycobacterium avium
[3] = tested on: M. intracellulare DSM 43223; test: as above; format: cell-based; conditions: Mycobacterium intracellulare
M. avium B18101968 = test: as above; format: cell-based; conditions: Mycobacterium avium

For CC(C)/N=c1\cc2n(-c3ccc(Cl)cc3)c3ccccc3nc-2cc1Nc1ccc(Cl)cc1 [Clofazimine, clofazimine], which MIC (M. abscessus CIP104536; CIP104536, + SP (10% CF sputum)) is on record?
The MIC was over 2 µg/mL.

What about the MIC (M. abscessus CIP104536; CIP104536, absence of sputum) of the same molecule?
Its MIC is 0.25 µg/mL (≈ 0.528 µM).

What about the MIC (M. abscessus B15029863; B15029863, + SP (10% CF sputum)) of the same molecule?
The MIC was over 2 µg/mL.

What about the MIC (M. abscessus B15029863; B15029863, absence of sputum) of the same molecule?
The MIC was 2 µg/mL (≈ 4.22 µM).

And the MIC (M. abscessus B12052284; B12052284, + SP (10% CF sputum))?
The MIC was over 2 µg/mL.

And the MIC (M. abscessus B12052284; B12052284, absence of sputum)?
Its MIC is 2 µg/mL (≈ 4.22 µM).

And the solubility in water [1]?
The solubility in water was “practically insoluble in water”.

What about the MIC (M. Chimaera CIP 107892; CIP107892, + SP (10% CF sputum)) of the same molecule?
The MIC was over 2 µg/mL.

And the MIC (M. Chimaera CIP 107892; CIP107892, absence of sputum)?
Its MIC is 0.5 µg/mL (≈ 1.06 µM).

And the MIC (M. abscessus B18104072; B18104072, + SP (10% CF sputum))?
The MIC was over 2 µg/mL.

And the MIC (M. abscessus B18104072; B18104072, absence of sputum)?
The MIC was 1 µg/mL (≈ 2.11 µM).

What about the “absorption after oral administration” value [2] of the same molecule?
Its value is 45-62%.

And the MIC (M. avium ATCC 700898; ATCC700898, + SP (10% CF sputum))?
The MIC was over 2 µg/mL.

And the MIC (M. avium ATCC 700898; ATCC700898, absence of sputum)?
The MIC was 0.25 µg/mL (≈ 0.528 µM).

What about the MIC ([3]; DSM43223, + SP (10% CF sputum)) of the same molecule?
Its MIC is over 2 µg/mL.

What about the MIC ([3]; DSM43223, absence of sputum) of the same molecule?
Its MIC is 1 µg/mL (≈ 2.11 µM).

What about the MIC (M. avium B18101968; B18101968, + SP (10% CF sputum)) of the same molecule?
Its MIC is over 2 µg/mL.

What about the MIC (M. avium B18101968; B18101968, absence of sputum) of the same molecule?
Its MIC is 0.5 µg/mL (≈ 1.06 µM).
